Data reported in patent publication US10766894B2, “Aza-indazole compounds for use in tendon and/or ligament injuries” (NOVARTIS AG, priority 2016, dated 2020).

Tested on: mouse immortalized TT-D6 Scx-luciferase (ScxL) cell line; transcriptional activation of Scleraxis (Scx) gene
Assay: SCX-LUC in vitro assay (scleraxis promoter luciferase reporter)
Format: cell-based
Conditions: Mus musculus, 96 h; Examples table; TT-D6 Scx-luciferase cells, 1 ng/ml TGFβ1, four days; read-out: Scx-Luc (EC50 μM)

Compared with `Cc1ccc(O)c(S(=O)(=O)Nc2ccc(-c3ccc4[nH]nc(N)c4n3)c(Cl)c2)c1` [Example 32, N-(4-(3-amino-1H-pyrazolo[4,3-b]pyridin-5-yl)-3-chlorophenyl)-2-hydroxy-5-methylbenzenesulfonamide], `Cc1ccc(S(=O)(=O)Nc2ccc(-c3ccc4[nH]nc(N)c4n3)c(Cl)c2)cc1` [Example 25, N-(4-(3-amino-1H-pyrazolo[4,3-b]pyridin-5-yl)-3-chlorophenyl)-4-methylbenzenesulfonamide] is 3.2-fold lower in EC50: 1.94 µM for the first, 0.611 µM for the second. The second is the more potent here.

First: Nc1n[nH]c2ccc(-c3ccc(S(=O)(=O)N4CC[C@H](O)C4)cc3Cl)nc12 [Example 71, (S)-1-((4-(3-amino-1H-pyrazolo[4,3-b]pyridin-5-yl)-3-chlorophenyl)sulfonyl)pyrrolidin-3-ol]
Second: Nc1n[nH]c2ccc(-c3ccc(S(=O)(=O)N4CC[C@@H](O)C4)cc3Cl)nc12 [Example 57, (R)-1-((4-(3-amino-1H-pyrazolo[4,3-b]pyridin-5-yl)-3-chlorophenyl)sulfonyl)pyrrolidin-3-ol]
The EC50 of the first is 5.6-fold higher: 3.53 µM for the first, 0.633 µM for the second.

Compared with `Nc1n[nH]c2ccc(-c3ccc(S(=O)(=O)Nc4cccc(F)c4)cc3Cl)nc12` [Example 40], `Nc1n[nH]c2ccc(-c3ccc(NS(=O)(=O)c4cccc(F)c4)cc3Cl)nc12` [Example 41, N-(4-(3-amino-1H-pyrazolo[4,3-b]pyridin-5-yl)-3-chlorophenyl)-3-fluorobenzenesulfonamide] is 5.4-fold higher in EC50: 0.416 µM for the first, 2.25 µM for the second. The first is the more potent here.

Going from `Cc1cc(S(=O)(=O)N[C@H]2C[C@H](O)C2)ccc1-c1ccc2[nH]nc(N)c2n1` [Example 77, 4-(3-amino-1H-pyrazolo[4,3-b]pyridin-5-yl)-N-((1r,3r)-3-hydroxycyclobutyl)-3-methylbenzenesulfonamide] to `Cc1cc(S(=O)(=O)N[C@H]2C[C@@H](CO)C2)ccc1-c1ccc2[nH]nc(N)c2n1` [Example 47, 4-(3-amino-1H-pyrazolo[4,3-b]pyridin-5-yl)-N-((1s,3s)-3-(hydroxymethyl)cyclobutyl)-3-methylbenzenesulfonamide], the EC50 rises from 0.777 µM to 5.34 µM (6.9-fold). The first is the more potent here.

Going from `Nc1n[nH]c2ccc(-c3ccc(S(=O)(=O)N[C@H]4CCC[C@H]4O)cc3Cl)nc12` [Example 35, 4-(3-amino-1H-pyrazolo[4,3-b]pyridin-5-yl)-3-chloro-N-((1S,2R)-2-hydroxycyclopentyl)benzenesulfonamide] to `Nc1n[nH]c2ccc(-c3ccc(S(=O)(=O)NC4CCCC(O)C4)cc3Cl)nc12` (stereo not drawn) [Example 44, 4-(3-amino-1H-pyrazolo[4,3-b]pyridin-5-yl)-3-chloro-N-(3-hydroxycyclohexyl)benzenesulfonamide], the EC50 rises from 2.73 µM to 4.12 µM (1.5-fold).

`Nc1n[nH]c2ccc(-c3ccc(S(=O)(=O)Nc4cccc(Cl)c4F)cc3Cl)nc12` [Example 52, 4-(3-amino-1H-pyrazolo[4,3-b]pyridin-5-yl)-3-chloro-N-(3-chloro-2-fluorophenyl)benzenesulfonamide] and `Nc1n[nH]c2ccc(-c3ccc(NS(=O)(=O)c4ccc(Cl)c(F)c4)cc3Cl)nc12` [Example 13, N-(4-(3-amino-1H-pyrazolo[4,3-b]pyridin-5-yl)-3-chlorophenyl)-4-chloro-3-fluorobenzenesulfonamide] are within 1.5-fold of each other in EC50: 1.1 µM for the first, 1.34 µM for the second.

Going from `Nc1n[nH]c2ccc(-c3ccc(S(=O)(=O)N[C@@H]4CC[C@H](O)C4)cc3Cl)nc12` [Example 23, 4-(3-amino-1H-pyrazolo[4,3-b]pyridin-5-yl)-3-chloro-N-((1R,3S)-3-hydroxycyclopentyl)benzenesulfonamide] to `CC1CCC(NS(=O)(=O)c2ccc(-c3ccc4[nH]nc(N)c4n3)c(Cl)c2)CC1` (stereo not drawn) [Example 36, 4-(3-amino-1H-pyrazolo[4,3-b]pyridin-5-yl)-3-chloro-N-(4-methylcyclohexyl)benzenesulfonamide], the EC50 falls from 2.28 µM to 0.414 µM (5.5-fold).

Going from `C[C@]1(O)CC[C@H](NS(=O)(=O)c2ccc(-c3ccc4[nH]nc(N)c4n3)c(Cl)c2)CC1` [Example 58, 4-(3-amino-1H-pyrazolo[4,3-b]pyridin-5-yl)-3-chloro-N-((1r,4r)-4-hydroxy-4-methylcyclohexyl)benzenesulfonamide] to `Cc1cc(S(=O)(=O)N[C@H]2CC[C@](C)(O)CC2)ccc1-c1ccc2[nH]nc(N)c2n1` [Example 80, 4-(3-amino-1H-pyrazolo[4,3-b]pyridin-5-yl)-N-((1r,4r)-4-hydroxy-4-methylcyclohexyl)-3-methylbenzenesulfonamide], the EC50 falls from 1.51 µM to 0.225 µM (6.7-fold).

Compared with `Nc1n[nH]c2ccc(-c3ccc(S(=O)(=O)N4CC5CCCC5C4)cc3Cl)nc12` (stereo not drawn) [Example 51, 5-(2-chloro-4-((hexahydrocyclopenta[c]pyrrol-2(1H)-yl)sulfonyl)phenyl)-1H-pyrazolo[4,3-b]pyridin-3-amine], `NC(=O)[C@H]1C[C@@H](F)CN1S(=O)(=O)c1ccc(-c2ccc3[nH]nc(N)c3n2)c(Cl)c1` [Example 55, (2R,4R)-1-((4-(3-amino-1H-pyrazolo[4,3-b]pyridin-5-yl)-3-chlorophenyl)sulfonyl)-4-fluoropyrrolidine-2-carboxamide] is 2.6-fold higher in EC50: 2.39 µM for the first, 6.16 µM for the second.

Going from `Nc1n[nH]c2ccc(-c3ccc(S(=O)(=O)NCc4ccccc4)cc3Cl)nc12` [Example 73, 4-(3-amino-1H-pyrazolo[4,3-b]pyridin-5-yl)-N-benzyl-3-chlorobenzenesulfonamide] to `Nc1n[nH]c2ccc(-c3ccc(S(=O)(=O)N4CC(Oc5ccccc5)C4)cc3Cl)nc12` [Example 87, 5-(2-chloro-4-((3-phenoxyazetidin-1-yl)sulfonyl)phenyl)-1H-pyrazolo[4,3-b]pyridin-3-amine], the EC50 falls from 3.53 µM to 0.83 µM (4.3-fold).

`Nc1n[nH]c2ccc(-c3ccc(NS(=O)(=O)c4ccc(C(F)(F)F)cc4)cc3Cl)nc12` [Example 78, N-(4-(3-amino-1H-pyrazolo[4,3-b]pyridin-5-yl)-3-chlorophenyl)-4-(trifluoromethyl)benzenesulfonamide] and `COc1cccc(S(=O)(=O)Nc2ccc(-c3ccc4[nH]nc(N)c4n3)c(Cl)c2)c1` [Example 67, N-(4-(3-amino-1H-pyrazolo[4,3-b]pyridin-5-yl)-3-chlorophenyl)-3-methoxybenzenesulfonamide] are within 1.5-fold of each other in EC50: 2.44 µM for the first, 2.32 µM for the second.

`Cc1cc(NS(=O)(=O)c2cccc(F)c2)ccc1-c1ccc2[nH]nc(N)c2n1` [Example 33, N-(4-(3-amino-1H-pyrazolo[4,3-b]pyridin-5-yl)-3-methylphenyl)-3-fluorobenzenesulfonamide] and `Cc1cc(S(=O)(=O)N[C@H]2CC[C@@H](O)CC2)ccc1-c1ccc2[nH]nc(N)c2n1` [Example 69, 4-(3-amino-1H-pyrazolo[4,3-b]pyridin-5-yl)-N-((1s,4s)-4-hydroxycyclohexyl)-3-methylbenzenesulfonamide] are within 1.5-fold of each other in EC50: 1.02 µM for the first, 0.912 µM for the second.

First: Nc1n[nH]c2ccc(-c3ccc(NS(=O)(=O)C4CCCCC4O)cc3Cl)nc12 (stereo not drawn) [Example 17, N-(4-(3-amino-1H-pyrazolo[4,3-b]pyridin-5-yl)-3-chlorophenyl)-2-hydroxycyclohexane-1-sulfonamide]
Second: Cc1cc(S(=O)(=O)N2CCC(CCO)C2)ccc1-c1ccc2[nH]nc(N)c2n1 (stereo not drawn) [Example 83, 2-(1-((4-(3-amino-1H-pyrazolo[4,3-b]pyridin-5-yl)-3-methylphenyl)sulfonyl)pyrrolidin-3-yl)ethanol]
The EC50 of the first is 2.9-fold lower: 1.84 µM for the first, 5.33 µM for the second. The first is the more potent here.

Same assay, conditions: further compounds not numbered as examples; read-out: EC50 in the Scx-Luc assay

For `Nc1n[nH]c2ccc(-c3ccc(S(=O)(=O)NC4CCC(O)(C(F)(F)F)CC4)cc3Cl)nc12` [4-(3-amino-1H-pyrazolo[4,3-b]pyridin-5-yl)-3-chloro-N-((1R,4R)-4-hydroxy-4-(trifluoromethyl)cyclohexyl)benzenesulfonamide], the EC50 was over 10 µM.
